Where two headings read alike, the source gives them in different places.
Assays:
Assay in all cases: Kinase profiling in a biochemical assay panel (mobility shift assays and ELISA), %-inhibition at 1 μM; selectivity entropy
[1] = target: T1, panel of more than 300 wild-type and mutant kinases (313 kinase panel) (Homo sapiens, UniProt Q9H093)
T1 sequence (Q9H093 1-628): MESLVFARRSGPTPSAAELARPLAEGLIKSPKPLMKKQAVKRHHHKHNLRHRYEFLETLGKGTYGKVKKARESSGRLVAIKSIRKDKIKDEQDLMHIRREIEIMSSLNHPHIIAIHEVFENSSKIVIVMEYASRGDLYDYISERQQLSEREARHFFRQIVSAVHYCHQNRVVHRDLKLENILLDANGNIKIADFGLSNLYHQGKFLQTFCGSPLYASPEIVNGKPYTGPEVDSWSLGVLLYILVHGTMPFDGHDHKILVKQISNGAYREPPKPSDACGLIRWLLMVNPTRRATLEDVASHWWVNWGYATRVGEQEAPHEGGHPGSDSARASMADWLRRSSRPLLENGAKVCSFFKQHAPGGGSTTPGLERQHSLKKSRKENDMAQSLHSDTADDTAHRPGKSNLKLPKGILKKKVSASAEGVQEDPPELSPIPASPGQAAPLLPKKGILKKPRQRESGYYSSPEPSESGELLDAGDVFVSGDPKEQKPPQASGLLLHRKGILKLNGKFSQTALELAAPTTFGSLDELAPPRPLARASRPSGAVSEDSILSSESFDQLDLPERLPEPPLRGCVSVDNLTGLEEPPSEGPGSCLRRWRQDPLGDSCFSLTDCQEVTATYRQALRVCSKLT

[2] = target: panel of more than 300 wild-type and mutant kinases (313 kinase panel) (Homo sapiens, UniProt P08069)
[3] = target: panel of more than 300 wild-type and mutant kinases (313 kinase panel) (Homo sapiens, UniProt Q9HCP0)
[4] = target: panel of more than 300 wild-type and mutant kinases (313 kinase panel) (Homo sapiens, UniProt P17612)
[5] = target: panel of more than 300 wild-type and mutant kinases (313 kinase panel) (Homo sapiens, UniProt Q86Z02)
[6] = target: panel of more than 300 wild-type and mutant kinases (313 kinase panel) (Homo sapiens, UniProt P06493)
[7] = target: T2, panel of more than 300 wild-type and mutant kinases (313 kinase panel) (Homo sapiens, UniProt Q8TF76)
T2 sequence (Q8TF76 1-798): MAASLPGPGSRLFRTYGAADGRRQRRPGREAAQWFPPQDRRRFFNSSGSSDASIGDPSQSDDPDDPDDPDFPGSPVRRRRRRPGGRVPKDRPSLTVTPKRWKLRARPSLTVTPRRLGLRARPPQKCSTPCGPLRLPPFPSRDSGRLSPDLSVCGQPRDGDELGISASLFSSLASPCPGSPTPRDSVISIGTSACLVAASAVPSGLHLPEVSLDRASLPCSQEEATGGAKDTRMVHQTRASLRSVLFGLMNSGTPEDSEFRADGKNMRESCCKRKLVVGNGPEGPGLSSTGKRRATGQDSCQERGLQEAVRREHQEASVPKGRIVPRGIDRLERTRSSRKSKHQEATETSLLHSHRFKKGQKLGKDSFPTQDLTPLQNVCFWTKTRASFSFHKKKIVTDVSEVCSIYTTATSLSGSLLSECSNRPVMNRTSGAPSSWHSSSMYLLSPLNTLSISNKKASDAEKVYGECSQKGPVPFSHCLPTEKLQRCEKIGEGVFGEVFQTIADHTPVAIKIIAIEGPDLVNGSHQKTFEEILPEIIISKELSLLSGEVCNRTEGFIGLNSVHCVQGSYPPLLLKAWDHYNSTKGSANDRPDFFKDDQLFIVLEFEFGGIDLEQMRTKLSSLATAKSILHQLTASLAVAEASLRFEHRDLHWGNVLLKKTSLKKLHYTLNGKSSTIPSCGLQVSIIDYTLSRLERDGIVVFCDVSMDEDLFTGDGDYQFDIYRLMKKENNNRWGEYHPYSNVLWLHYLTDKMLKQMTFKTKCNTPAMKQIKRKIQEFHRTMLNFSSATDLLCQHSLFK

[8] = target: T3, panel of more than 300 wild-type and mutant kinases (313 kinase panel) (Homo sapiens, UniProt P51813)
T3 sequence (P51813 1-675): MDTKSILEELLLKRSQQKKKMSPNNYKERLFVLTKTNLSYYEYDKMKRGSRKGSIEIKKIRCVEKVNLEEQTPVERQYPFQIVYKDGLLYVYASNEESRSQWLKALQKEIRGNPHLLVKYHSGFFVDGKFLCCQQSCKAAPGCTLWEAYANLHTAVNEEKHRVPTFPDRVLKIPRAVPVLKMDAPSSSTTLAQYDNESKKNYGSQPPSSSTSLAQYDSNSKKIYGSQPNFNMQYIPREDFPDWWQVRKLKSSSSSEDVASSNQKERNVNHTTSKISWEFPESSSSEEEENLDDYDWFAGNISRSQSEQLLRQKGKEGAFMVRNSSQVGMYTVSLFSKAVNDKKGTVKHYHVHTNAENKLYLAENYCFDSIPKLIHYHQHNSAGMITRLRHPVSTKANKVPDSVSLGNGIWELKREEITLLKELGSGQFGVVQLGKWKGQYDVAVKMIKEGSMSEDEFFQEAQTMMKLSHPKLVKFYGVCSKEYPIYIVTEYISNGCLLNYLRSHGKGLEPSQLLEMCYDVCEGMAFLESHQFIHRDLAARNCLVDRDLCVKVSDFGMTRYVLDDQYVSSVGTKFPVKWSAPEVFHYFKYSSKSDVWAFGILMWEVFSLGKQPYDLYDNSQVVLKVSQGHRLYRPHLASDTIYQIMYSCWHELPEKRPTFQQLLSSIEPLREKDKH

[9] = kinase CDC2/CycB1, 1 μM compound
[10] = kinase Haspin, compound at 1 μM

SMILES	%-inhibition of NuaK2 ([1]; kinase NuaK2, 1 μM) [%]	%-inhibition of IGF1R ([2]; kinase IGF1R, compound at 1 μM) [%]	%-inhibition, CK1γ1 ([3]; kinase CK1γ1, 1 μM compound) [%]	%-inhibition of PKACα ([4]; kinase PKACα, 1 μM) [%]	%-inhibition of HIPK1 ([5]; kinase HIPK1, compound at 1 μM) [%]	%-inhibition, CDC2/CycB1 [6, 9] [%]	%-inhibition of Haspin [7, 10] [%]	%-inhibition, BMX ([8]; kinase BMX, 1 μM compound) [%]	%-inhibition of Haspin ([7]; 1 µM) [%]	%-inhibition of NuaK2 ([1]; 1 µM) [%]	%-inhibition of IGF1R [2] [%]	%-inhibition, CK1γ1 ([3]; 1 µM) [%]	%-inhibition of PKACα ([4]; 1 µM) [%]	%-inhibition, BMX ([8]; 1 µM) [%]	%-inhibition of HIPK1 ([5]; 1 µM) [%]	%-inhibition, CDC2/CycB1 ([6]; 1 µM) [%]
COc1cc(Nc2c(C#N)cnc3cc(OCCCN4CCN(C)CC4)c(OC)cc23)c(Cl)cc1Cl [bosutinib]	87	15	14	58	3.32	-1.38										
COc1cc2nccc(Oc3ccc(NC(=O)C4(C(=O)Nc5ccc(F)cc5)CC4)cc3)c2cc1OC [cabozantinib]	1.63	11	4.74	-4.67	31	-17	8	53								
C[C@@H](Oc1cc(-c2cnn(C3CCNCC3)c2)cnc1N)c1c(Cl)ccc(F)c1Cl [crizotinib]	87		-3.52	-6	-7	19	7									
CC(C)(C)c1nc(-c2cccc(NS(=O)(=O)c3c(F)cccc3F)c2F)c(-c2ccnc(N)n2)s1 [dabrafenib]	4.53				70		9	55								
Cc1nc(Nc2ncc(C(=O)Nc3c(C)cccc3Cl)s2)cc(N2CCN(CCO)CC2)n1 [dasatinib]	3			0.736	2.64	4.44	-13									
C#Cc1cccc(Nc2ncnc3cc(OCCOC)c(OCCOC)cc23)c1 [erlotinib]									-8	-0.531	7	2.22	4.34	17	12	6
CO[C@H]1C[C@@H]2CC[C@@H](C)[C@@](O)(O2)C(=O)C(=O)N2CCCC[C@H]2C(=O)O[C@H]([C@H](C)C[C@@H]2CC[C@@H](OCCO)[C@H](OC)C2)CC(=O)[C@H](C)/C=C(\C)[C@@H](O)[C@@H](OC)C(=O)[C@H](C)C[C@H](C)/C=C/C=C/C=C/1C [everolimus]	-0.726	-3.24	-2.44	-6	-6	-19	-0.358	-5.3								
O=S(=O)(c1cccc2cnccc12)N1CCCNCC1 [fasudil]	20	-13	-3		-3.31	6.46	72	-4								
CS(=O)(=O)CCNCc1ccc(-c2ccc3ncnc(Nc4ccc(OCc5cccc(F)c5)c(Cl)c4)c3c2)o1 [lapatinib]	-1.19	3.73	-8.54	0.663		0.355	3.3	9								
Cc1cn(-c2cc(NC(=O)c3ccc(C)c(Nc4nccc(-c5cccnc5)n4)c3)cc(C(F)(F)F)c2)cn1 [nilotinib]		-11			14	1	2.56			-44		-1	3.31			
Cc1ccc(Nc2nccc(N(C)c3ccc4c(C)n(C)nc4c3)n2)cc1S(N)(=O)=O [pazopanib]	2.81		-3	2	10	3	-0.746	24								
Cc1ccc(C(=O)Nc2ccc(CN3CCN(C)CC3)c(C(F)(F)F)c2)cc1C#Cc1cnc2cccnn12 [ponatinib]	-13	17	-4		22	33										
CCN(CC)CCNC(=O)c1c(C)[nH]c(/C=C2\C(=O)Nc3ccc(F)cc32)c1C [sunitinib]					79											

Source: paper PMC3961306, “Comparison of the Cancer Gene Targeting and Biochemical Selectivities of All Targeted Kinase Inhibitors Approved for Clinical Use” (PLoS ONE, 2014)
